Data set [1] deals with female Sprague–Dawley rats. Description: In vivo acute systemic toxicity of SAPs, subcutaneous injection. The conditions noted are these: for Body weights at the beginning of the experiment (means) / Body weight at the end of the experiment (means): single s.c. injection 10 mL/kg, mean ± SD, n = 5; for Body weights at the beginning of the experiment (means): day 0; for Body weight at the end of the experiment (means): day 5. More on the design: species or system Rattus norvegicus. How it is done:
The general guidance from the ISO10993 to Biological evaluation of medical devices was followed. Animals were housed in plastic cages with free access to drinking water and a pelleted basal diet under controlled conditions of temperature (22 °C ± 3 °C), humidity (50 ± 10%) and light (12/12 h light/dark cycle). Rats were quarantined for the first 7 days and randomly divided into experimental and control groups. All animals were bred and maintained at CIBA (Biomedical Research Center of Aragon; Department of Experimental Surgery). Animal experimentation was approved by the Ethics Committee for Animal Experimentation from the University of Zaragoza (protocol number PI31/22), and all authors complied with the ARRIVE guidelines.SAPs or electrospun mats, empty micro-channels, and HS-filled micro-channels were subcutaneously administered to female Sprague–Dawley rats (Rattus norvegicus) 7 weeks old, non-pregnant, and nulliparous. The concentration of each SAP was: HS: 1%, 68: 3%, 46: 5%, C1: 3%, 65L: 3% and B42: 1%. On the day before administration, the animals were weighed, and the hair of their thoracic back was shaved. On day 1, the different SAPs were administered in one single dose by subcutaneous injection to each rat corresponding to each group. To devices, a skin incision of about 1 cm and subcutaneous dissection were performed under sterile conditions. Then, the products provided were introduced into the subcutaneous space, one piece per animal. Animals were weighed. Animals were euthanized by trained personnel using medical-grade Carbon dioxide (CO2). CO2 inhalation is the most common method of euthanasia used for small animals (i.e., mice, rats, guinea pigs, and hamsters). It is considered an acceptable euthanasia agent for small animals when properly administered. It was accepted by the Ethics Committee for Animal Experimentation from the University of Zaragoza (protocol number PI31/22). For histological assessment, lung, liver, spleen, kidneys, and duodenum were removed from rats, fixed with 4% paraformaldehyde, and embedded in paraffin. Sections from these samples were stained with hematoxylin and eosin (H&E). Blood samples were drawn at the end of the study by cardiac puncture. They were analysed with VetScan V2.
Data are expressed by mean ± standard deviation of the mean. Body weight comparison between groups was assessed using the repeated measures two-way ANOVA test. Bonferroni posthoc multiple comparisons were also used. Analysis of biochemical parameters was made with one-way ANOVA. They were performed using GraphPad Prism 8 (8.0.2).

The test system of data set [2] is TK6 human lymphoblastoid cell line. Description: In vitro micronucleus (MN) assay. The note with it: 4 h exposure, scored 48 h after exposure, 2000 cells per culture, three independent experiments. The format is cell-based. The procedure:
(§1) The general guidance from OECD TG 487 and 490 were followed[26],[41]. TK6 cell suspensions were treated with serially diluted SAPs molecules at 37 °C for 4 h, washed and resuspended in fresh medium, and cultured in new flasks for the MN and TK assays. We conducted the MN test and the TK mutation assay 48 h and 72 h later, respectively.
To measure genotoxicity, cells were subcultured at a maximum density of 2.5 × 10^5 cells/mL (at most 20 × 0^6 cells) for 3 additional days to allow phenotypic expression of the TK gene prior to mutant selection. Forty-eight hours after treatment, the cells were prepared for the MN assay. Briefly, a small portion of cell culture from the flask was transferred to a 15 mL tube and centrifuged at 1200 rpm for 5 min at RT. The supernatant was then removed, and the pelleted cells were resuspended in PBS and placed in a cytospin funnel where cells were cytospun for 4 min at 900 rpm on microscope coverslips. A Diff-Quik staining was performed for microscope scoring. At least 2000 intact cells for each treatment were examined, and the cells containing MN were scored. Cells containing one or more micronuclei were recorded as micronucleated cells. […] The MN frequencies between non-treated and treated cells and the concentration–response relationship were statistically analyzed. […]

For data set [3] the test system is unchanged. Description: Thymidine kinase gene mutation assay (TK GMA). The data set is classed as cell-based. The note with it: TK6 cells, 4 h exposure, negative control 5.4 × 10^–6. How it is done:
as §1
To measure genotoxicity, cells were subcultured at a maximum density of 2.5 × 10^5 cells/mL (at most 20 × 0^6 cells) for 3 additional days to allow phenotypic expression of the TK gene prior to mutant selection. Forty-eight hours after treatment, the cells were prepared for the MN assay. […] At least 2000 intact cells for each treatment were examined, and the cells containing MN were scored. Cells containing one or more micronuclei were recorded as micronucleated cells. […] The MN frequencies between non-treated and treated cells and the concentration–response relationship were statistically analyzed. […]
The cultures were maintained for another 24 h to allow phenotypic expression prior to plating for TK assay to determine the mutant fractions. […] Mutation frequencies (MFs) were finally calculated from cells grown in TFT selection medium or non-selection medium (for 7 days) via the Poisson distribution method. […] Changes in MFs relative to the negative controls (fold-change) were calculated and expressed graphically.

Data set [4] deals with Mouse Embryonic Fibroblasts (MEFs). Kind of data set: Scratch wound (wound healing) assay, fibroblasts. The data set is classed as cell-based. The note with it: MEF fibroblasts, 0.01 mg/mL, IncuCyte scan every 4 h; three independent experiments. The procedure: Prior to initiating the assay, cells were grown to confluence in a 96-well plate at 37 °C in an atmosphere of 5% CO2 and, with the help of a 96-pin IncuCyte® Wound Maker simultaneously created precise and reproducible wounds in all wells of a 96-well plate by gently removing the cells from the confluent monolayer. After wounding, immediately aspirate the media from each well and wash the cells twice with culture media (100 µL/well). After washing, 100 µL of media containing 0.01 mg/mL of the appropriate agent was added to the corresponding well, and the plate was placed inside the IncuCyte. Assay plates were then equilibrated within the IncuCyte® for a minimum of 15 min before the first scan. The software was set to scan the plate every 4 h for migration assays.

Setting [5] is: rat blood at day 5, VetScan V2, one-way ANOVA, within expected reference values.

The star is where a group is joined. Biotin = O=C1N[C@H]2[C@H](CS[C@H]2CCCCC(=O)*)N1

In the case of Biotin-GGGAFASAKA-NH2 [B42], in data set [1] (rats), the “Body weights at the beginning of the experiment (means)” value (shortened to “Body weights at the beginning”) is given as 243.8 ± 9.10 g and the “Body weight at the end of the experiment (means)” value (shortened to “Body weight at the end”) is recorded as 260.8 ± 10.9 g.
On to “Ac-FAQRVPPGGG(LDLD)3-CONH2 [compound 68]”, for which the “Sodium blood test (NA+) compared with the control group” value in data set [1] (setting [5]) was “increased”. In data set [1] (rat blood, cardiac puncture at day 5, VetScan V2, one-way ANOVA, all group means incl. control slightly above reference), the “albumin (ALB) levels compared with the control group” value is recorded as “Significant higher”. In addition, in data set [1] (rats, s.c. 10 mL/kg, days 0, 2, 5, two-way ANOVA, p = 0.03, no significant change at single time points), the “body weight evolution versus control group” value is listed as “significantly different”. In data set [1] (rats), the “Body weights at the beginning” value stood at 238.1 ± 8.05 g and the “Body weight at the end” value is 247.9 ± 7.60 g.
As to `CO[C@@]12[C@H](COC(N)=O)C3=C(C(=O)C(C)=C(N)C3=O)N1C[C@@H]1N[C@@H]12` [Mit C, Mitomycin C], in data set [2], the “percentage of micronucleated cells versus negative control” value is given as “significant increase”. In addition, the results for the “mutant frequency (MF)” value in data set [3] (Mit C 8.3 µg/mL (positive control)) and in data set [3] (Mit C 25 µg/mL (positive control)) were 14.6 × 10^–6 and 175.3 × 10^–6, respectively.
Regarding FAQRVPPGGG(LDLK)3-CONH2 [compound 46], the “cell migration versus control (area under relative wound density % vs time curve)” value in data set [4] is given as “reduced cell migration”. For the same compound, in data set [1] (setting [5]), the “globulin blood tests (GLOB) compared with the control group” value is recorded as “increased”. In data set [1] (rats), the “Body weights at the beginning” value was 250.5 ± 9.10 g and the “Body weight at the end” value is given as 265.2 ± 8.20 g.

These data come from article PMC10883997, “Multiparametric in vitro and in vivo analysis of the safety profile of self-assembling peptides” (Scientific Reports, 2024).
